Assay results taken from US20120288482A1, “THERAPEUTIC AGENT (Y-39983) FOR CORNEAL ENDOTHELIAL DYSFUNCTION” (priority 2009, published 2012).

Legend:
corneoscleral tissues = test: Cell death suppression in cornea preserved in corneal storage solution (Example 10); format: cell-based, rabbit; conditions: 4° C.
Protocol: In this Example, test substances and control substances prepared in the same manner as in Example 4 were used. Both right and left eyeballs of 5 male Japanese white rabbits (Biotek Co., Ltd.) were removed, and corneoscleral tissues were prepared. One corneoscleral tissue was placed in a storage solution Optisol-GS (registered trade mark) (Bausch & Lomb, Inc) (control), and the other corneoscleral tissue was placed in Optisol-GS containing 0.95 μM compound (I). Similarly, corneoscleral tissues were prepared from another 5 male Japanese white rabbits, one corneoscleral tissue was placed in Optisol-GS (control), and the other corneoscleral tissue was placed in Optisol-GS containing 10 μM Y-27632. The samples containing each corneoscleral tissue were preserved at 4° C. Two or three weeks later, the corneoscleral tissues were stained with Hoechst (Hoechst 33342, Sigma, Cat. #B2261), PI (propidium iodide, Sigma, Cat. #P4170) and Annexin V (Annexin V-FITC, MBL, Cat. #4700-100), and the cells therein were indentified as living cells, dead cells and apoptotic cells. In addition, the various cells in the stained cornea were counted using ImageJ (ver.1.44i, NIH, http://imagej.nih.gov/ij), and the mean value and the standard deviation of 5 visual fields were determined. The various cell counts were statistically analyzed by the student's t-test.

[1] = test system: cultured corneal endothelial cells; conditions: cited from earlier work
corneal endothelium = conditions: instillation of 10 mM; cited from earlier work
[2] = test system: cultured monkey corneal endothelial cells; conditions: in vitro; cited from earlier work
[3] = test system: corneal endothelial loss model; test: Rabbit corneal endothelial loss model, high concentration instillation (Example 2); format: in vivo; conditions: 0.05 w/v % (1.58 mM) instillation, 6 times a day, 2 days
[4] = test system: rabbit corneal endothelial cells; test: Wound healing model of cultured corneal endothelial cells (Example 5); format: cell-based
Protocol: In this Example, rabbit corneal endothelial cells prepared in the same manner as in Example 4 were used. In this Example, moreover, test substances and control substance prepared in the same manner as in Example 4 were used. Collected rabbit corneal endothelial cells were diluted with a culture medium (about 4 ml, DMEM (Invitrogen, Cat. #12320-032), 10% FBS, 2 ng/mL bFGF (Invitrogen, Cat. #13256-029) and 1% penicillin/streptomycin (Invitrogen, Cat. #15070-063)), and seeded at a division ratio of 1:4 by 2 ml per well in a 6 well plate (Corning Incorporated, Cat. #3516). The cells were incubated to confluent under conditions of 37° C. and 5% CO2. Wound was created in the confluent cells using 1000 μL chip (Molecular BioProducts, 2279). Then, each medicament was added to the culture medium to a final concentration of 0.09, 0.32, 0.95, 3.16 and 9.47 μM compound (I), 10 μM Y-27632 and 10 μM Fasudil. As a control, DMSO was added to a final concentration of 0.04%. At 6 hours, 12 hours and 24 hours after addition of each medicament, the width of the wound was photographed over time, and the width of the wound was evaluated by image analysis.

[5] = test system: rabbit corneal endothelial cells; test: Adhesion of cultured corneal endothelial cells to culture plate (Example 6); format: cell-based; conditions: 3 hours after seeding
Protocol: In this Example, rabbit corneal endothelial cells prepared in the same manner as in Example 4 were used. In this Example, moreover, test substances and control substance prepared in the same manner as in Example 4 were used. The collected rabbit corneal endothelial cells were diluted, and a culture medium (about 4 ml, DMEM (Invitrogen, Cat. #12320-032), 10% FBS, 2 ng/mL bFGF (Invitrogen, Cat. #13256-029) and 1% penicillin/streptomycin (Invitrogen, Cat. #15070-063)) was added to the cells. Then, each medicament was added to the culture medium to final concentrations of 0.09, 0.32, 0.95, 3.16 and 9.47 μM compound (I), 10 μM Y-27632 and 10 μM Fasudil. As a control, DMSO was added to a final concentration of 0.04%. These cells were seeded in a 96 well plate (Corning Incorporated, Cat. #3595) at 1000 cells/well. After 3 hours from the seeding, suspended cells were removed, and adhered cells were counted by CellTiter-Glo (registered trade mark) Luminescent Cell Viability Assay (promega Cat. #G7572).

| Structure (SMILES) | number of dead cells versus control (corneoscleral tissues; 10 μM in Optisol-GS) | cell adhesion [1] | wound healing of corneal endothelium (corneal endothelium) | apoptosis [2] | cell adhesion [2] | cell cycle [2] | effect in rabbit corneal endothelial loss model [3] | wound healing effect ([4]; 0.95 μM, student's t-test) | wound width ([4]; 9.47 μM, versus control) | wound width ([4]; 0.09-3.16 μM, 24 hours after addition, Dunnett's test) | concentration showing a wound healing effect ([4]; in vitro wound healing model, Example 5) | number of adherent cells ([5]; 0.32 μM) | concentration at which the number of adherent cells reached plateau [5] | number of adherent cells ([5]; all addition groups (0.09-9.47 μM)) | number of dead cells versus control (corneoscleral tissues; 0.95 μM in Optisol-GS, 2 weeks) | number of apoptotic cells versus control (corneoscleral tissues; 0.95 μM in Optisol-GS, 3 weeks) | number of dead cells versus control (corneoscleral tissues; 0.95 μM in Optisol-GS, 3 weeks) |
| --- | --- | --- | --- | --- | --- | --- | --- | --- | --- | --- | --- | --- | --- | --- | --- | --- | --- |
| C[C@@H](N)[C@H]1CC[C@H](C(=O)Nc2ccncc2)CC1 [Y-27632, reference compound] | only the number of dead cells decreased significantly | promoting cell adhesion | promotes wound healing of corneal endothelium | suppression of apoptosis | promotion of cell adhesion | promotion of cell cycle | – | – | – | – | – | – | – | – | – | – | – |
| C[C@@H](N)c1ccc(C(=O)Nc2ccnc3[nH]ccc23)cc1.Cl [compound (I), (R)-(+)-N-(1H-pyrrolo[2,3-b]pyridin-4-yl)-4-(1-aminoethyl)benzamide monohydrochloride] | – | – | – | – | – | – | effect can be confirmed | showed a wound healing effect from the early stages of the addition | no statistically significant difference from the control group | significantly decreased | 0.09 to 3.16 µM | almost the same level as 10 μM Y-27632 | not less than 0.32 μM | increased the number of adherent cells | decreased significantly | decreased significantly | decreased significantly |
